Measurements published in US5948436A, “Pharmaceutical composition” (Abbott Laboratories, priority 1995, dated 1999).

Experiments:
[1] = Oral bioavailability studies in dogs (AUC after oral vs. intravenous dose); parameters: species or system dog (beagle dogs, mixed sexes); details: dog, in vivo, 5 mg/kg
Procedure: Each dog received a single solid dosage form corresponding to a 5 mg/kg dose of the drug.

HIV-2 protease = experiment: Inhibition of HIV-2 protease; type: biochemical
HIV-1 protease = HIV-1 protease (HIV-1 M:B_HXB2R, UniProt P04585); type: biochemical

Row | SMILES | bioavailability [1] [%] | inhibition of HIV-2 protease (HIV-2 protease) | inhibition of HIV-1 protease (HIV-1 protease)
1 | CC(C)c1nc(CN(C)C(=O)N[C@H](C(=O)N[C@@H](Cc2ccccc2)C[C@H](O)[C@H](Cc2ccccc2)NC(=O)OCc2cncs2)C(C)C)cs1 [compound III, (2S,3S,5S)-5-(N-(N-((N-Methyl-N-((2-isopropyl-4-thiazolyl)methyl)-amino)carbonyl)valinyl)amino)-2-(N-((5-thiazolyl)methoxycarbonyl)amino)-1,6-diphenyl-3-hydroxyhexane] | < 2 |  | 
2 | CC(C)c1nc(CN(C)C(=O)NC(C(=O)NC(Cc2ccccc2)CC(O)C(Cc2ccccc2)NC(=O)OCc2cncs2)C(C)C)cs1 (stereo not drawn) [formula II] |  | especially effective | especially effective
